According to patent US5472942A, “Anti-thrombins” (priority 1988, dated 1995):

Test system: human blood
Experiment: Partial thromboplastic time
Conditions: equivalent doses; anti-thrombin of the invention compared with hirudin
Source text: The anti-thrombin according to the invention and hirudin do however, have similar partial thromboplastic times for equivalent doses.

Substance: hirudin: thrombin-specific polypeptide of 65 amino acids from Hirudo medicinalis [reference compound]
- partial thromboplastic times: similar
